Reference: US20220143086A1, “METHOD OF HOMING AND RETENTION OF GAMMADELTA T CELLS, OPTIONALLY WITH NATURAL KILLER CELLS, FOR GENERATING CELL COMPOSITIONS FOR USE IN THERAPY” (Gamida Cell Ltd., priority 2019, published 2022)
Entries after “also recorded” stand apart in the source; their conditions may differ.

How the values were obtained:
[1] = test system: alphabeta-depleted peripheral blood cells; assay: T-cell receptor characterization by FACS of CD3+ cells from cultured alphabeta-depleted blood cells; type: cell-based, human; conditions: 5 mM nicotinamide
Experimental: (§1) Healthy donor blood units samples were depleted of TCR alphabeta-expressing T-cells using midiMACS™ columns and TCRα/β Kit (Miltenyi Biotec, Gaithersberg, Md.). Alphabeta-T-cell depleted populations were cultured for 12-13 days in VueLife® (Saint-Gobain, Gaithersburg, Md.) bags with medium supplemented with 0 (control) or 5 mM nicotinamide (NAM) and 50 ng/ml IL-2.
To characterize T cell receptor (TCR) expressed on CD3+ cells in culture, CD3 positive cells were purified with CliniMACS™ CD3 reagent (Miltenyi, 273-01, Gaithersburg, Md.) followed by FACS analysis of the percentages of CD3+/γδ+ and CD3+/α/β+ cells. FACS staining and analysis was performed according to standard procedures employing cell surface-specific antibodies.

gammadelta T cells [2] = assay: Transplantation and in-vivo homing and retention of expanded gammadelta T-cells in irradiated NSG mice; conditions: for in-vivo homing and tissue retention of gammadelta cells: cells expanded with 5 mM NAM, CFSE-labeled, i.v. into irradiated NSG mice, 4 days, all tissues analyzed
Experimental: as §1
CD3+/gammadelta+ cells were purified from culture, as described above, and then marked with CFSE (Invitrogen, Thermo-Fisher, Carlsbad, Calif.). NSG SCID mice were irradiated at 350cGy. The next day following irradiation, 5-6×10^6 CFSE-labeled CD3+/gammdelta-positive cells per mouse from NAM and control (−NAM) cultures were injected intravenously into the mice.
Mice were sacrificed 4 days after cell infusion, and organs excised. Fractions of CFSE stained cells were evaluated by FACS of organ cell suspensions.

gammadelta T cells [3] = assay: CD62L expression in expanded gammadelta T-cells (FACS); type: cell-based, human
Experimental: as §1
Purified gamma-delta T-cells from NAM-treated and control (−NAM) cultures were stained for CD62L (L-selectin) and analyzed by FACS, using anti-CD62L antibodies.

[4] = cells cultured with 5 mM NAM, 4 days after infusion, irradiated NSG mice

**Q.** Which “gammadelta T cells in CD3+ T-cell fraction” value ([1]; 50 ng/ml IL-2, 12-13 days culture, CD3+ selected, FACS) does the source give for `NC(=O)c1cccnc1` [NAM, nicotinamide] here?
**A.** The value was “greater than 90%”.

**Q.** What about the “effect on expansion of the gammadelta positive component of cultured T-cell populations” value ([1]; 12-13 days culture) of the same molecule?
**A.** The value was “does not seem to affect”.

**Q.** What about the “gammadelta T-cells retained in blood and lung tissue” value (gammadelta T cells [2]; [4]) of the same molecule?
**A.** Its value is “nearly three-fold increase”.

**Q.** What about the “gammadelta T-cells retained in lymphoid tissue (spleen, bone marrow)” value (gammadelta T cells [2]; [4]) of the same molecule?
**A.** Its value is “powerful enhancement”.

**Q.** What about the “in-vivo homing and tissue retention of gammadelta cells” value (gammadelta T cells [2]) of the same molecule?
**A.** Its value is “enhanced incidence of homing and retention; also recorded: striking effect”.

**Q.** And the “in-vivo homing and tissue retention of gammadelta cells” value (gammadelta T cells [2]; listed as nicotinamide)?
**A.** The value was “greater homing and tissue retention”.

**Q.** And the “CD62L expression (in words)” value (gammadelta T cells [3]; 5 mM NAM versus identical cells cultured without NAM)?
**A.** The value was “striking enhancement”.

**Q.** And the “increase in CD62L expression” value (gammadelta T cells [3]; 5 mM nicotinamide, 12-13 days culture, versus culture without NAM)?
**A.** Its value is about 3 fold.
